Results from patent US20230287021A1, “COMPOUNDS, COMPOSITIONS AND METHODS FOR STABILIZING TRANSTHYRETIN AND INHIBITING TRANSTHYRETIN MISFOLDING” (Protego Biopharma, Inc., priority 2020, published 2023).
Where a name gives a salt, the structure may show the parent alone.

test: In vitro rat liver S9 stability assay, formation of tafamidis; type: in vitro ADME; conditions: rat liver S9, 37° C., 1 µM test compound
Procedure: The test compound was added to liver S9 and incubated at 37° C. in a water bath at a concentration of 1 µM. At each time point (0, 5, 10, 20, 30 and 60 min), stop solution (tolbutamide plus labetalol) was added to precipitate protein and mixed thoroughly. After centrifugation, an aliquot of supernatant was analyzed by LC-MS/MS. The percentage of formation of active agent was calculated at each time point.

Compound | Formation of tafamidis at 60 min
O=C(OCC1CCCN1Cc1ccccc1)c1ccc2nc(-c3cc(Cl)cc(Cl)c3)oc2c1 (stereo not shown) [Compound 165] | C (C is ≥50 to <75%)
O=C(OCCCc1ccncc1)c1ccc2nc(-c3cc(Cl)cc(Cl)c3)oc2c1 [Compound 113] | D (D is ≥75%)
CN(C)[C@H]1C[C@@H]1OC(=O)c1ccc2nc(-c3cc(Cl)cc(Cl)c3)oc2c1 (relative stereo) [Compound 154, trans 2-(dimethylamino)cyclopropyl 2-(3,5-dichlorophenyl)benzo-[d]oxazole-6-carboxylate hydrochloride] | C (C is ≥50 to <75%)
O=C(OCCCc1ccccn1)c1ccc2nc(-c3cc(Cl)cc(Cl)c3)oc2c1 [Compound 106] | D (D is ≥75%)
Cn1cncc1COC(=O)c1ccc2nc(-c3cc(Cl)cc(Cl)c3)oc2c1 [Compound 123] | C (C is ≥50 to <75%)
O=C(OCc1cccnc1)c1ccc2nc(-c3cc(Cl)cc(Cl)c3)oc2c1 [Compound 107] | D (D is ≥75%)
CN1CCC(CCOC(=O)c2ccc3nc(-c4cc(Cl)cc(Cl)c4)oc3c2)C1 (stereo not shown) [Compound 126] | A (A is <25%)
CN(C)[C@H]1C[C@H](OC(=O)c2ccc3nc(-c4cc(Cl)cc(Cl)c4)oc3c2)C1 [Compound 125] | A (A is <25%)
CC(Cc1cccnc1)OC(=O)c1ccc2nc(-c3cc(Cl)cc(Cl)c3)oc2c1 (stereo not shown) [Compound 168, 1-(pyridin-3-yl)propan-2-yl 2-(3,5-dichlorophenyl)benzo[d]oxazole-6-carboxylate] | B (B is ≥25 to <50%)
Cn1cnc(COC(=O)c2ccc3nc(-c4cc(Cl)cc(Cl)c4)oc3c2)c1 [Compound 129] | D (D is ≥75%)
CN1CC(OC(=O)c2ccc3nc(-c4cc(Cl)cc(Cl)c4)oc3c2)CCC1=O (stereo not shown) [Compound 162] | B (B is ≥25 to <50%)
O=C(OCc1cncnc1)c1ccc2nc(-c3cc(Cl)cc(Cl)c3)oc2c1 [Compound 133] | C (C is ≥50 to <75%)
CN(C)[C@H]1CCC[C@H]1OC(=O)c1ccc2nc(-c3cc(Cl)cc(Cl)c3)oc2c1 [Compound 134] | A (A is <25%)
O=C(OCc1ccccc1)c1ccc2nc(-c3cc(Cl)cc(Cl)c3)oc2c1 [Compound 186] | D (D is ≥75%)
Cn1nccc1COC(=O)c1ccc2nc(-c3cc(Cl)cc(Cl)c3)oc2c1 [Compound 127] | D (D is ≥75%)
O=C(OCCc1ccccc1)c1ccc2nc(-c3cc(Cl)cc(Cl)c3)oc2c1 [Compound 187] | C (C is ≥50 to <75%)
CN1CCCC1CCCOC(=O)c1ccc2nc(-c3cc(Cl)cc(Cl)c3)oc2c1 (stereo not shown) [Compound 136] | A (A is <25%)
Cn1cc(COC(=O)c2ccc3nc(-c4cc(Cl)cc(Cl)c4)oc3c2)cn1 [Compound 128] | C (C is ≥50 to <75%)
O=C(OC1CCN(CCF)C1)c1ccc2nc(-c3cc(Cl)cc(Cl)c3)oc2c1 (stereo not shown) [Compound 147] | B (B is ≥25 to <50%)
CN1CCC(CCCOC(=O)c2ccc3nc(-c4cc(Cl)cc(Cl)c4)oc3c2)C1 (stereo not shown) [Compound 137] | A (A is <25%)
O=C(OCc1cccnn1)c1ccc2nc(-c3cc(Cl)cc(Cl)c3)oc2c1 [Compound 130] | D (D is ≥75%)
CC(OC(=O)c1ccc2nc(-c3cc(Cl)cc(Cl)c3)oc2c1)c1ncccn1 (stereo not shown) [Compound 146] | C (C is ≥50 to <75%)
CN1CCCC1CCOC(=O)c1ccc2nc(-c3cc(Cl)cc(Cl)c3)oc2c1 (stereo not shown) [Compound 122] | A (A is <25%)
O=C(OCc1ccnnc1)c1ccc2nc(-c3cc(Cl)cc(Cl)c3)oc2c1 [Compound 135] | C (C is ≥50 to <75%)
Cn1ccc(CCCOC(=O)c2ccc3nc(-c4cc(Cl)cc(Cl)c4)oc3c2)n1 [Compound 104] | B (B is ≥25 to <50%)
O=C(OCCc1ccccn1)c1ccc2nc(-c3cc(Cl)cc(Cl)c3)oc2c1 [Compound 105] | D (D is ≥75%)
CC(=O)N1CCC(OC(=O)c2ccc3nc(-c4cc(Cl)cc(Cl)c4)oc3c2)C1 (stereo not shown) [Compound 138] | A (A is <25%)

Compound | Formation of tafamidis at 60 min
O=C(OC1CCCn2ccnc21)c1ccc2nc(-c3cc(Cl)cc(Cl)c3)oc2c1 (stereo not shown) [Compound 155, 5,6,7,8-tetrahydroimidazo[1,2-a]pyridin-8-yl 2-(3,5-dichlorophenyl)benzo[d]oxazole-6-carboxylate] | D (D is ≥75%)
CCN1CCCC1COC(=O)c1ccc2nc(-c3cc(Cl)cc(Cl)c3)oc2c1 (stereo not shown) [Compound 172] | B (B is ≥25 to <50%)
CN(CC(F)F)C(=O)c1ccc2nc(-c3cc(Cl)cc(Cl)c3)oc2c1 [Compound 174] | A (A is <25%)
[2H]C([2H])([2H])N1CCC(OC(=O)c2ccc3nc(-c4cc(Cl)cc(Cl)c4)oc3c2)C1 (stereo not shown) [Compound 140] | A (A is <25%)
O=C(OC1CCCN(Cc2ccccc2)C1)c1ccc2nc(-c3cc(Cl)cc(Cl)c3)oc2c1 (stereo not shown) [Compound 164] | B (B is ≥25 to <50%)
CN1CC(OC(=O)c2ccc3nc(-c4cc(Cl)cc(Cl)c4)oc3c2)CC(F)(F)C1 (stereo not shown) [Compound 171, 5,5-difluoro-1-methylpiperidin-3-yl 2-(3,5-dichlorophenyl)benzo[d]oxazole-6-carboxylate] | C (C is ≥50 to <75%)
[2H]C([2H])([2H])N(CCCOC(=O)c1ccc2nc(-c3cc(Cl)cc(Cl)c3)oc2c1)C([2H])([2H])[2H] [Compound 152] | A (A is <25%)
O=C(OC1CCn2ccnc21)c1ccc2nc(-c3cc(Cl)cc(Cl)c3)oc2c1 (stereo not shown) [Compound 149] | D (D is ≥75%)
CC[N+]1([O-])CCC(OC(=O)c2ccc3nc(-c4cc(Cl)cc(Cl)c4)oc3c2)C1 (stereo not shown) [Compound 142] | A (A is <25%)
O=CN1CCC(OC(=O)c2ccc3nc(-c4cc(Cl)cc(Cl)c4)oc3c2)C1 (stereo not shown) [Compound 150] | B (B is ≥25 to <50%)
O=C(OCCc1ccncc1)c1ccc2nc(-c3cc(Cl)cc(Cl)c3)oc2c1 [Compound 110] | C (C is ≥50 to <75%)
O=C(OCc1cnccn1)c1ccc2nc(-c3cc(Cl)cc(Cl)c3)oc2c1 [Compound 132] | D (D is ≥75%)
O=C(OC1CCCC1)c1ccc2nc(-c3cc(Cl)cc(Cl)c3)oc2c1 [Compound 184] | B (B is ≥25 to <50%)
CC(Cc1ccncc1)OC(=O)c1ccc2nc(-c3cc(Cl)cc(Cl)c3)oc2c1 (stereo not shown) [Compound 169] | B (B is ≥25 to <50%)
O=C(OCCc1cccnc1)c1ccc2nc(-c3cc(Cl)cc(Cl)c3)oc2c1 [Compound 108] | D (D is ≥75%)
CN(C)[C@@H]1CC[C@H]1OC(=O)c1ccc2nc(-c3cc(Cl)cc(Cl)c3)oc2c1 [Compound 120] | B (B is ≥25 to <50%)
O=C(OCCCc1cccnc1)c1ccc2nc(-c3cc(Cl)cc(Cl)c3)oc2c1 [Compound 112] | D (D is ≥75%)
Cc1ncc2n1CCC2OC(=O)c1ccc2nc(-c3cc(Cl)cc(Cl)c3)oc2c1 (stereo not shown) [Compound 159, 3-methyl-6,7-dihydro-5H-pyrrolo[1,2-c]imidazol-7-yl 2-(3,5-dichlorophenyl)benzo[d]oxazole-6-carboxylate hydrochloride] | D (D is ≥75%)
O=C(OCc1ccncn1)c1ccc2nc(-c3cc(Cl)cc(Cl)c3)oc2c1 [Compound 131] | D (D is ≥75%)
COc1nc(C)c(COC(=O)c2ccc3nc(-c4cc(Cl)cc(Cl)c4)oc3c2)o1 [Compound 114, (2-methoxy-4-methyloxazol-5-yl)methyl 2-(3,5-dichlorophenyl)-benzo [d] oxazole-6-carboxylate] | A (A is <25%)
CN(C)[C@H]1C[C@@H](OC(=O)c2ccc3nc(-c4cc(Cl)cc(Cl)c4)oc3c2)C1 [Compound 121] | A (A is <25%)
O=C(OCc1ccncc1)c1ccc2nc(-c3cc(Cl)cc(Cl)c3)oc2c1 [Compound 109] | C (C is ≥50 to <75%)
O=C(OCCCc1ncccn1)c1ccc2nc(-c3cc(Cl)cc(Cl)c3)oc2c1 [Compound 148, 3-(pyrimidin-2-yl)propyl 2-(3,5-dichlorophenyl)benzo[d]oxazole-6-carboxylate] | D (D is ≥75%)
CN(CCF)C(=O)c1ccc2nc(-c3cc(Cl)cc(Cl)c3)oc2c1 [Compound 173] | A (A is <25%)
CN1CC(OC(=O)c2ccc3nc(-c4cc(Cl)cc(Cl)c4)oc3c2)C1 [Compound 118] | B (B is ≥25 to <50%)
O=C(OC1CCN(C2CC2)C1)c1ccc2nc(-c3cc(Cl)cc(Cl)c3)oc2c1 (stereo not shown) [Compound 115] | D (D is ≥75%)
C[N+]1([O-])CCC(OC(=O)c2ccc3nc(-c4cc(Cl)cc(Cl)c4)oc3c2)C1 (stereo not shown) [Compound 141, 3-((2-(3,5-dichlorophenyl)benzo[d]oxazole-6-carbonyl)oxy)-1-methylpyrrolidine 1-oxide] | A (A is <25%)

test: In vitro rat plasma stability assay, formation of tafamidis; type: in vitro ADME; conditions: 37° C., 2 µM test compound
Procedure: A stability assay in plasma (rat or human) was used to evaluate the ability of a compound provided herein to convert to an active TTR stabilizer. The test compound was added to plasma and incubated at 37° C. in a water bath at a concentration of 2 µM. At each time point (0, 10, 30, 60 and 120 min or 0, 60, 120, 180 and 240 min), stop solution (tolbutamide plus labetalol) was added to precipitate protein and mixed thoroughly. After centrifugation, an aliquot of supernatant was analyzed by LC-MS/MS. The percentage of formation of active agent was calculated at each time point.

Compound | Formation of tafamidis at 120 min
CNCCOC(=O)c1ccc2nc(-c3cc(Cl)cc(Cl)c3)oc2c1 [Compound 9, 2-(methylamino)ethyl 2-(3,5-dichlorophenyl)benzo[d]oxazole-6-carboxylate hydrochloride] | A (A is <25%)
